According to a melting point compilation (Tetko et al.; mined from patent text by program, amines drawn as free bases though some values may be those of a salt):

| SMILES | melting point [°C] |
| --- | --- |
| NC(=S)NN=C(CCCNC(=O)C1CCCCC1)c1ccccc1 | 158 to 159 |
| CC(=O)N1CC(CCN2CC=C(c3ccccc3)CC2)c2cc3c(cc21)OCO3 (stereo unspecified) | 90 to 91 |
| CC(=O)N1CCC(C)(C)c2cc(/C(C)=C/c3ccc(C(=O)O)cc3)ccc21 | 200 to 202 |
| CC=C1CC2C3CCc4cc(OC)ccc4C3CCC2(C)C1=O (stereo unspecified) | 139 to 140 |
| COC(=O)Cc1ccc(OCCNC(=O)C2Cc3ccccc3N2S(=O)(=O)c2ccc(-c3cc(C(F)(F)F)ccc3Cl)cc2)c(Cl)c1 (stereo unspecified) | 68 to 76 |
| CCC(=O)C(CCCCCCOc1ccc(OC)cc1)C(=O)CC | 50 to 51 |
| COc1ccc(C(=O)Oc2ccc(C(=O)O)cc2F)cc1C12CC3CC(CC(C3)C1)C2 | 258 to 260 |
| COCC1CN(c2ccc(C3CCN(C(=O)c4ccc(C(F)(F)F)cc4)CC3)cc2)C(=O)O1 (racemic) | 164 to 166 |
| CCCCCCCCCCCCCCCCC#CCC(CO)COCCCCCCCCCCCCCCCC (stereo unspecified) | 46 to 47 |
| CCC(=O)NS(=O)(=O)c1ccc2c3c(cc([N+](=O)[O-])c2c1)NCC3CCl (stereo unspecified) | 173 to 177 |
| Cc1cc(C2=CC3(CC(C)(C)C2CO)SCCCS3)ccc1F (stereo unspecified) | 128 to 129 |
| CCOP(=O)(/C=C/c1cn(-c2ccccc2)nc1OCc1ccc(OCc2nc(-c3ccccc3)oc2C)c(OC)c1)OCC | 92 to 93 |
| COc1cc2c(cc1C(F)(F)F)N(C(=O)Nc1cccs1)CC2 | 240 to 244 |
| COC(=O)[C@H](Cc1cccc2ccccc12)NC(=O)[C@H](CC(=O)OC(C)(C)C)NC(=O)c1cccc(NC(=O)OCc2ccccc2)c1 | 95 to 98 |
| CC(=O)N1N=C2C(=Cc3cccc(C(F)(F)F)c3)CS(=O)(=O)CC2C1c1cccc(C(F)(F)F)c1 (stereo unspecified) | 200 to 202 |
| NC(C(=O)O)c1ccc(C(=O)O)cc1N1CCCC1 (stereo unspecified) | 187 to 190 |
| N=C(CC1=CCC=CC1)N1C[C@@H]2C(=O)CCC(c3ccccc3)(c3ccccc3)[C@@H]2C1 (racemic) | 190 |
| CC(=O)c1c(C)c(NC(=O)CC(C)(C)C)c(C)c2c1S(=O)(=O)CC2c1ccc(C(C)C)cc1 (stereo unspecified) | 184 to 186 |
| CC(C)CCNCCCN1C(=O)C2(COc3cc4c(cc32)CCO4)c2ccccc21 (stereo unspecified) | 98 to 101 |

| SMILES | melting point [°C] |
| --- | --- |
| CCCc1c(OCCCCSCCC(=O)O)ccc(C(C)=O)c1O | 75 to 77 |
| CC(C)C(=O)NCC(=O)c1ccco1 | 78 to 80 |
| CCC(C)(C)N1C(=O)C2(COc3cc4c(cc32)CCO4)c2ccccc21 (stereo unspecified) | 128 to 129 |
| COc1cc(C(C)C)c2c(c1)S(=O)(=O)N(COc1cc(C(F)(F)F)nn1-c1ncccn1)C2=O | 133 to 134 |
| O=C1NCC(Cc2ccccc2)C2=C1N=C1N=C(N3CCOCC3)NN1C2 (stereo unspecified) | 315 to 317 |
| CCOP(=O)(C/C=C/CNc1c(N)c(=O)c1=O)OCC | 145 to 147 |
| Cn1c(CC(=O)O)cc2ccc3ccsc3c(=O)c21 | 185 to 188 |
| C(#Cc1ccc(C2=CC(c3ccc(C#Cc4ccccc4)cc3)N(c3ccccc3)N2)cc1)c1ccccc1 (stereo unspecified) | 200 to 204 |
| Cc1cc(OC(C)c2sc(-c3ccc(C(F)(F)F)cc3F)nc2C)ccc1OC(C)(C)C(=O)O (stereo unspecified) | 133 |
| COc1cc(Cc2ccccc2)c(O)c2c1C(C)(C)CCC2(C)C | 80 |
| COC(=O)Cc1cc(N)n(-c2ccccn2)n1 | 84 to 85 |
| O=C(O)CCCCCNS(=O)(=O)c1ccc(Cl)cc1 | 126 to 127 |
| CN1C(=O)CC2(CCc3cc4ccccc4n3C2)C1=O (stereo unspecified) | 158 to 164 |
| CC12CCC(O)CC1CCC1C2CCC2(C)C(C(=O)CSc3ccncc3)CCC12 (stereo unspecified) | 154 to 156 |
| CCOC(=O)c1ncn2c1[C@@H]1CCCN1C(=O)c1cc(F)ccc1-2 | 194 to 195 |
| CCCC(=O)c1cnc2c(OCC)nccc2c1OS(C)(=O)=O | 115 to 116 |
| c1c(NC23CC4CC(CC(C4)C2)C3)nc(N2CCNCC2)nc1NC12CC3CC(CC(C3)C1)C2 | 210 to 220 |
| CCOC(=O)c1cc(-c2ccncc2)c(C(F)(F)F)nc1N | 121 to 125 |
| Cn1cncc1C(O)(c1ccc(Cl)cc1)c1ccc2c(c1)C(c1cccc(Cl)c1)=NCc1nnnn1-2 (stereo unspecified) | 240 |

| SMILES | melting point [°C] |
| --- | --- |
| O=C(Nc1cc(CO)cc(Nc2c3ccccc3nc3ccccc23)c1)Oc1ccc(N(CCCl)CCCl)cc1 | 241 to 242 |
| COc1ccc(C2=C(/C=C/C(=O)Oc3ccc([N+](=O)[O-])cc3)CCc3cc(OC)ccc32)cc1 | 151 to 152 |
| COc1ccc(C(CC(=O)O)CC(=O)O)cc1 | 147 to 150 |
| CN1CCC(C)(O)C(C)(C)C1Cc1ccccc1 (stereo unspecified) | 95 to 103 |
| Nc1nc(Cl)c2c(n1)CCCS2 | 196 to 198 |
| O=C(O)C1=C(C(F)(F)F)COc2ccc3ccccc3c21 | 246 to 249 |
| COC(=O)CCCCC(=O)N(O)c1ccc2ccccc2c1O | 111 to 113 |
| CN1Cc2c(C(=O)OCC3CC3)ncn2-c2cccc(Cl)c2C1=O | 194 to 195 |
| CCOC(=O)CC(=O)c1cc(Oc2ccccc2)c(NS(C)(=O)=O)cc1OCc1ccccc1 | 85 to 90 |
| CC(c1ccc2c(c1)C(=O)c1ccccc1C2=O)N1CCNCC1 (stereo unspecified) | 97.7 to 98.1 |
| CC(C)(OCc1cc2cc(C(F)(F)F)ccc2n1S(=O)(=O)c1ccc2c(c1)CCO2)C(=O)O | 92 to 94 |
| Nc1cc2c(cc1N)OC(F)(Cl)C(F)(Cl)O2 (stereo unspecified) | 130 to 131 |
| COC(=O)N1CC=C(c2ccc(N3C[C@H](CNC(C)=O)OC3=O)cc2)CC1 | 142 to 145 |
| CSc1nc(=O)[nH]c(C)c1Br | 244 |
| CCCN(CCCCNC(=O)NC1Cc2ccccc2C1)C1CCc2ncsc2C1 (stereo unspecified) | 93 |
| COC(=O)c1cc2c(nc1C)C(COC(=O)Oc1ccc([N+](=O)[O-])cc1)CCCC2 (stereo unspecified) | 116 to 117 |
| CC(C)(C)OC(=O)Nc1sc(Cl)nc1Cl | 111 to 112 |
| O=C(OCC1OC(n2cc(F)c(=O)[nH]c2=O)CC1OCc1ccccc1)c1ccc2c(c1)OCO2 (stereo unspecified) | 169 to 171 |

The next lines start with the values.

| melting point [°C] | SMILES |
| --- | --- |
| 98 to 100 | O=C(c1ccc2cc(Cl)ccc2c1)C1CCNCC1 |
| 148 to 149 | COc1cccc(-c2cc(N)c3cc(OC)ccc3n2)c1 |
| 236 | O=C(Nc1ccc2ccc(Cl)nc2n1)c1ccc(C(F)(F)F)cc1 |
| 88 to 108 | Cc1ccc(C(=C(C=CC=O)c2nnnn2C)c2ccc(C)cc2F)c(F)c1 |
| 186 to 188 | Cc1cccc(-c2cncc(Nc3ccc(Cl)cc3)n2)n1 |
| 139 to 141 | CCc1csc(-c2ccc3c(c2)C=C(C(=O)Nc2ccc(CN(C)C4CCOCC4)cc2)CCN3C)c1 |
| 128 to 129 | O=S(=O)(NC(CCCN1CCN(c2ncc(F)cn2)CC1)c1ccc(F)cc1)c1ccc(F)cc1 (stereo unspecified) |
| 142 to 143 | Cc1ccccc1CN1CCC(c2cc(-c3ccc(Cl)cc3)[nH]n2)CC1 |
| 173 | O=C(Nc1cnc(-c2ccccc2)nc1C(=O)O)OCc1ccc(-c2ccccc2)cc1 |
| 134 to 135 | Cc1ccc2oc(C(O)[C@H](C)NC(=O)OCc3ccccc3)nc2c1 (stereo partly specified) |
| 185 to 191 | Cn1ccnc1Sc1ccc(Nc2c(C#N)cnc3cc(/C=C/CCN4CCCC4)ccc23)cc1Cl |
| 152 to 161 | COC(=O)c1ccccc1S(=O)(=O)NC(=O)Nc1nc(C)c(C)c(C)n1 |
| 143 to 145 | COc1ccccc1C(Nc1ccncc1)c1ccccc1 (stereo unspecified) |
| 164 to 166 | CC(=O)SCC(Cc1ccc(F)cc1F)C(=O)Nc1cccc(C(=O)O)c1 (stereo unspecified) |
| 99.6 to 100 | CCOC(=O)c1cc(-c2ccccc2)n(-c2cccc(Cl)c2)c1C |
| 71 to 72 | OCc1cncc(-c2ccccc2)c1 |
| 148 | c1ccc(-c2cc(-c3c[nH]nc3-c3ccccn3)ccn2)cc1 |
| 98 to 100 | CC(C)c1ccc2oc(C(O)COc3ccc(CO)cc3)cc2c1 (stereo unspecified) |
| 242 | Cc1c(C(=O)Nc2ccc(N3CCN(C4CCOCC4)CC3)c(C#N)c2)cnn1-c1ccc(Cl)c(Cl)c1 |
| 150 to 165 | CC1=NC2CN=C(c3ccccc3F)c3cc(Cl)ccc3C2C(=O)N1 (stereo unspecified) |

| melting point [°C] | SMILES |
| --- | --- |
| 126 to 127 | COc1ccc(-c2ccn(C)c2-c2ccc(OC)cc2)cc1 |
| 164 to 165 | O=C1NC(=O)C(Cc2ccc(OCc3nc(-c4ccccc4)cs3)cc2)S1 (stereo unspecified) |
| 226 to 228 | Cc1nn(-c2ccncc2)c2nc3cc(F)c(F)cc3c(Cl)c12 |
| 166 to 168 | CS(=O)(=O)c1ccc(-c2cnn(-c3cc(F)cc(F)c3)c(=O)c2-c2ccc(F)cc2)cc1 |
| 165 to 168 | O=C(O)COc1ccc2c(-c3ccccc3Cl)noc2c1Cl |
| 107 to 109 | Cc1ccc(C)c2c1OC(=O)C2c1ccc(C(C)C)cc1 (stereo unspecified) |
| 165 | Cc1ccc(Cn2c(NC3CCN(CC(O)COc4ccccc4)CC3)nc3ccccc32)o1 (stereo unspecified) |
| 93 to 96 | CSc1nc(Cl)cc(-c2ccc(C(F)(F)F)cc2)n1 |
| 181 to 183 | CCc1nc2ccc(Cc3ccc(C(=O)NO)cc3)cc2c(=O)n1CCc1ccccc1 |
| 172 | CNc1cccc2c1C(=O)c1ccccc1C2=O |
| 127 to 129 | COc1ccc(CCN2CCC(C(O)c3nc4ccccc4s3)CC2)cc1 (stereo unspecified) |
| 94 to 95 | CC(C)OCc1cnc2c(N)cccc2c1Cl |
| 138 to 140 | CC1=C(c2ccc(Cl)cc2)n2ncc(C#N)c2N(C(=O)CCl)C1 |
| > 250 | CSc1ncc2ccc(N)nc2n1 |
| 151 to 152 | O=S(=O)(Nc1ccccc1Oc1ccc2ncccc2c1)c1ccc(Cl)cc1 |
| 227 to 230 | Clc1cccc(-c2nnc3c4ccc(Cl)cc4c(-c4ccccc4)nn23)c1 |
| 46 to 48 | CCOC(=O)CCc1cc(O)ccc1-c1ccc(-c2cccnc2)c(CO)c1 |
| 119 to 120 | CCC(C)(C)C(=O)Oc1cccc2ccc(OCCOc3ccc(C(=O)C(=O)OC)cc3)cc12 |
| 131 | O=C(Nc1ccccc1)N(c1ccccc1)c1ccccc1 |
| 171 to 176 | Cc1nc(-c2cnc3[nH]cc(C(=O)N[C@@H](C(=O)N4CC(C#N)C4)C(C)(C)C)c3n2)cn1-c1cccc(F)c1 |
